We go through 1 compound from patent US7928141B2 (priority 2005, dated 2011).

Common to all, as to assay type: in vivo, human
Common to all, as to settings: using only lidocaine

A short description of assay [1]: Anesthetic trial in middle area operations: liposuction in the abdomen. As to the method:
The above components were dissolved in a small amount (<1 mL) of distilled water and mixed homogeneously, and the mixture was then diluted to 10 mL to yield the L.S.Z. solution.
10 bottles were filled each with 500 mL of normal saline solution. To each bottle was added 10 ml 2% lidocaine solution (as described in Example 1), and 1 mL of the L.S.Z. solution. The bottles were shaken respectively to mix well, yielding L.S.Z. anesthetic solution having a long duration of action.
[…] While injecting the anesthetic solution, liposuction was conducted using a liposuction tube, finally removing 3500 mL aspirated fat solution in total. The operation lasted 1 hour. When injecting, 3 injection points, the subcutaneous depth of 1-2 cm, and radiation injection around the injection point were chosen to form 3 anesthetic zones with a radius of 15 cm. After injection, the onset time shortened from the original about 1 min (using only lidocaine) down to about 5 sec, and the duration of analgesia prolonged from the original 4 hours (using only lidocaine) to about 9 days.

Assay [2] in a line: Anesthetic trial in general liposuction operations. As to the method:
The above components were dissolved in a small amount (<1 mL) of distilled water and mixed homogeneously, and the mix was then diluted to 150 mL to yield the L.S.Z. solution.
50 bottles were filled each with 500 mL normal saline solution. […] The bottles were shaken respectively to mix well, yielding L.S.Z. anesthetic solution having a long duration of action.
Then, a common syringe with a 25 cm long needle was used to inject subcutaneously the above anesthetic solution in 45 sites of a […], 1.70 m in height, and 90 kg in weight. While injecting the anesthetic solution, liposuction was conducted using a liposuction tube, finally removing 18 L aspirated fat solution in total. The operation lasted for about 9 hours and the weight of the subject was reduced by 15 kg in total.

A short description of assay [3]: Anesthetic trial in large area operations: liposuction in the lower limb (buttock, thigh, calf). As to the method: The above components were dissolved in a small amount (<1 mL) of distilled water and mixed homogeneously, and the mix was then diluted to 60 mL to yield the L.S.Z. solution.
20 bottles were filled each with 500 mL normal saline solution. To each bottle was added 15 mL of 2% lidocaine solution (as described in Example 1) and 3 mL of the L.S.Z. solution as prepared in this Example. The bottles were shaken respectively to mix well, yielding L.S.Z. anesthetic solution having a long duration of action.
[…] While injecting the anesthetic solution, liposuction was conducted using a liposuction tube, finally removing 6 L aspirated fat solution in total. The operation lasted for about 3 hours. When injecting, 8 injection points, the subcutaneous depth of 1-2 cm, and the radiation injection method around the injection point were chosen to form 8 anesthetic zones with a radius of 20 cm. After injection, the onset time shortened from the original about 1 min (using only lidocaine) down to around 5 sec, and the duration of analgesia prolonged from the original 4 hours (using only lidocaine) to about 9 days.

Structures are written as SMILES.

For `CCN(CC)CC(=O)Nc1c(C)cccc1C` [lidocaine], the duration of analgesia in assay [1], in assay [2] and in assay [3] was 4 h in each case. Moreover, the onset time entry in assay [1], in assay [2] and in assay [3] was “about 1 min” throughout.
